The structures appear in SMILES notation. “Also recorded” adds a separate entry of the source.

The source of these data is patent US20070123580A1, “Combination of histone deacetylase inhibitors with chemotherapeutic agents” (priority 2003, published 2007).

The test system of data set [1] is MDA-MB-435P cells. The data set can be described thus: MTS monolayer proliferation assay, drug combinations analysed with CalcuSyn. In kind it is cell-based, human. Conditions: in combination with adriamycin. An excerpt: (§1) MTS (which is 3-(4,5 Dimethylthiazol-2-yl)-5-(3-carboxyphenyl)-2-(4-sulfophenyl)-2H-tetrazolium, inner salt) assays are used to assess the antiproliferative effects of the drug combinations. The HCT116 and MDA-MB-435P tumor cell lines, previously characterized as sensitive to HDA inhibitors, are chosen for these experiments along with clinically relevant chemotherapeutic drugs. A commercial program, “CalcuSyn”, is employed to determine whether the combined effects are synergistic, antagonistic or additive.
(§2) Two cell lines, the HCT116 human colon carcinoma cells and MDA-MB-435P, a hormone independent breast carcinoma cell line, are chosen based on their sensitivity to HDAI. Chemotherapeutic agents are paired with the cell lines based on their clinical relevance. The compounds tested in combination with N-hydroxy-3-[4-[[(2-hydroxyethyl)[2-(1H-indol-3-yl)ethyl]-amino]methyl]phenyl]-2E-2-propenamide include adriamycin which is clinically used in the treatment of breast cancer, 5-fluoruracil (5-FU), and camptothecin, used clinically for colon cancer. Due to the reported cross-talk between histone deacetylases and DNA methyl transferases, 5-azacytidine, a DNA methyltransferase inhibitor, is also tested.
Human breast carcinoma cells, MDA-MB-435P are cultured as previously described in the reference above. Cell proliferation is measured using an adaptation of published procedures essentially as described, in Zhang R D, Fidler I J, Price J E, “Relative malignant potential of human breast carcinoma cell lines established from pleural effusions and a brain metastasis”, Invasion-Metastasis 1991; 11 :204-15.
Experiments are done using five-point or six-point drug titrations in 96-well tissue culture plates, with the top row left empty. HCT116 and MDA-MB-435P cells are suspended in complete media at a density of 3.6×10^3 and 2.1×10^4 cell/ml, respectively, and 190 μl are added per well. Complete medium (200 μl) is added to the top row. 24 hours later, after the cells have attached to the bottom of the plate, 10 μl of MTS solution are added to one of the plates to determine the activity at the time of compound addition (T0). The plate is incubated at 37° C. for 4 hours and the OD is measured on a Molecular Devices Thermomax at 490 nm using the Softmax program. The T0 plate serves as a reference for initial activity at the beginning of the experiment. Compound addition begins 24 hours after seeding, the same time as the T0 determination. […] One cell line is tested with four compounds or combinations per plate. 10 microliters of each of the six dilutions are added in triplicate and complete medium is added to the bottom row. The compounds are added to the plates singly or in combination with N-hydroxy-3-[4-[[(2-hydroxyethyl)[2-(1H-indol-3-yl)ethyl]-amino]methyl]phenyl]-2E-2-propenamide. In pretreated combinations, the drugs are added simultaneously, 24 hr prior, or 24 hr after N-hydroxy-3-[4-[[(2-hydroxyethyl)[2-(1H-indol-3-yl)ethyl]-amino]methyl]phenyl]-2E-2-propenamide. As controls for pretreatment, new dilutions are added to untreated cells singly or in combination 48 hours after seeding.
The plates are incubated at 37° C. for 72 hours from seeding. The MTS solution is added (as for the T0 plate) and read four hours later. In order to analyze the data, the average value of media alone (background) is subtracted from each experimental well and the triplicate values are averaged for each compound dilution. The following formulas are used to calculate percent growth.
The “% Growth” is plotted against compound concentration and used to calculate IC50s employing the user-defined spline function in Microsoft Excel. This function uses linear regression between data points to predict the concentration of compounds at 50% inhibition. IC50s are used to determine the dose range for each compound and the resultant combinations.
(§3) Using the CalcuSyn program, the Combination Index (CI) is determined by the isobologram equation CI=(D)1/(Dx)1+(D)2/(Dx)2. […]

In data set [2] the test system is HCT116 cells. Described as above. In kind it is cell-based, human.
Text: as §1
Two cell lines, the HCT116 human colon carcinoma cells and MDA-MB-435P, a hormone independent breast carcinoma cell line, are chosen based on their sensitivity to HDAI. Chemotherapeutic agents are paired with the cell lines based on their clinical relevance. […]
Experiments are done using five-point or six-point drug titrations in 96-well tissue culture plates, with the top row left empty. […] The plate is incubated at 37° C. for 4 hours and the OD is measured on a Molecular Devices Thermomax at 490 nm using the Softmax program. […]
(§4) The plates are incubated at 37° C. for 72 hours from seeding. The MTS solution is added (as for the T0 plate) and read four hours later. […]
as §3

Data set [3] deals with tumor cell lines. The experiment in a line: MTS monolayer proliferation assay, combination with 5-azacytidine (cell line not stated). The data set is classed as cell-based. Conditions: in combination with 5-azacytidine.
Text: as §1, §2
Experiments are done using five-point or six-point drug titrations in 96-well tissue culture plates, with the top row left empty. HCT116 and MDA-MB-435P cells are suspended in complete media at a density of 3.6×10^3 and 2.1×10^4 cell/ml, respectively, and 190 μl are added per well. Complete medium (200 μl) is added to the top row. […] The plate is incubated at 37° C. for 4 hours and the OD is measured on a Molecular Devices Thermomax at 490 nm using the Softmax program. […]
as §4
Using the CalcuSyn program, the Combination Index (CI) is determined by the isobologram equation CI=(D)1/(Dx)1+(D)2/(Dx)2. […] For each compound the % growth values at each dose as determined in the MTS assay is used. […]

Data set [4] relates to histone acetylation (intracellular HDA). The data set can be described thus: Histone acetylation in cells treated in culture. The data set is classed as cell-based, human.
The subject of data set [5] is p21 promoter. The data set can be described thus: Transcriptional activation of the p21 promoter. In kind it is cell-based. As to conditions: single agent; sub-micromolar concentrations.
Data set [6] deals with cell growth. The experiment in a line: Inhibition of cell growth in vitro. Conditions: single agent. In kind it is cell-based.
Data set [7] concerns HCT116 cells. The experiment in a line: Apoptosis in HCT116 cells. The data set is classed as cell-based, human. As to conditions: single agent, sub micromolar levels, 48 to 72 hours of exposure.
In data set [8] the test system is normal dermal fibroblasts. The data set can be described thus: Effect on normal dermal fibroblasts. In kind it is cell-based. As to conditions: single agent; compared with HCT116 cells.
For data set [9], the system named is HCT116 colon carcinoma xenograft. The experiment in a line: HCT116 colon carcinoma xenograft model. In kind it is in vivo, athymic mice. Conditions: single daily intravenous doses 10 to 100 mg/kg.
The subject of data set [10] is A549 lung carcinoma xenograft. The experiment in a line: A549 lung carcinoma xenograft model. In kind it is in vivo. Conditions: single daily intravenous doses 10 to 100 mg/kg.
The subject of data set [11] is MDA-M B-435P breast carcinoma xenograft. The experiment in a line: MDA-MB-435P breast carcinoma xenograft model. In kind it is in vivo. As to conditions: MDA-MB-435P breast xenograft; single daily intravenous doses 10 to 100 mg/kg.
Data set [12] concerns acetylated histone H3 and H4. The experiment in a line: Acetylated histone levels in HCT116 human tumor xenografts. Conditions: in vivo, HCT116 human tumor xenografts from athymic mice. An excerpt: The compound also increases acetylated histone H3 and H4 levels in vivo, in HCT116 human tumor xenografts from athymic mice. In this example, the effects of combining N-hydroxy-3-[4-[[(2-hydroxyethyl)[2-(1H-indol-3-yl)ethyl]-amino]methyl]phenyl]-2E-2-propenamide with standard therapeutics or with other experimental drugs on monolayer proliferation of tumor cell lines are investigated.
For orientation: A xenograft is tissue or cells of one species grown in another, often human tumour cells in immunodeficient mice.

Setting [13] is: HDAI added 24 hr prior to adriamycin.
Where [14] appears, read: adriamycin added 24 hr prior to HDAI.

Consider `O=C(/C=C/c1ccc(CN(CCO)CCc2c[nH]c3ccccc23)cc1)NO` [N-hydroxy-3-[4-[[(2-hydroxyethyl)[2-(1H-indol-3-yl)ethyl]-amino]methyl]phenyl]-2E-2-propenamide], for which the combination index in [1] (setting [13]) was about 1; in [1] (setting [14]), under 0.1; in [1] (simultaneous addition), about 1. The “combined antiproliferative effect (isobologram / combination index)” value in data set [1] (setting [13]) is “additive effects”; in data set [1] (setting [14]), “synergistic effects; also recorded: strong synergy; also recorded: very strong synergy”; in data set [1] (simultaneous addition), “additive effects”; in data set [2] (in combination with 5-FU), “mainly additive effects; also recorded: additive or weak antagonistic effects”. Besides, the “combined antiproliferative effect (combination index)” value in [2] (in combination with camptothecin) is recorded as “mainly additive effects; also recorded: additive or weak antagonism; also recorded: additive or weak antagonistic effects”. In addition, the combined antiproliferative effect entry in data set [3] (all drug addition schedules) was “mainly additive effects; also recorded: concentration-dependent effects”; in data set [3] (high inhibitory concentrations (IC50)), “additive effects”; in data set [3] (low inhibitory concentrations (IC25)), “antagonistic effects”. Further, in data set [4] (HCT116 cells treated in culture continuously for 3 to 24 hr), the “levels of histone acetylation” value is recorded as “Increased levels of histone acetylation”. In [4] (single agent, sub-micromolar concentrations, cells not given), the histone acetylation entry is on record as “increases histone acetylation”. Also, the p21 promoter activation entry in [5] is given as “transcriptionally activates the p21 promoter”. Moreover, the “concentration inhibiting cell growth” value in data set [6] is listed as “sub-micromolar concentrations”. Moreover, the apoptosis result in data set [7] is “produces apoptosis”. Besides, in data set [8], the “cellular response of normal dermal fibroblasts” value is on record as “predominantly undergo cell-cycle arrest”. Further, the “reduction of viability of normal dermal fibroblasts” value in data set [8] was “much higher concentrations and longer times of exposure are required”. The tumor growth result in data set [9], in data set [10] and in [11] was “reproducibly inhibits tumor growth” each time. In addition, the “acetylated histone H3 levels” value in data set [12] is listed as “increases”. For the same molecule, the “acetylated histone H4 levels” value in [12] was “increases”.
